Source: US9598384B2, “3-(2-amino-ethyl)-alkylidene)-thiazolidine-2,4-dione and 1-(2-amino-ethyl)-alkylidene-1,3-dihydro-indol-2-one derivatives as selective sphingosine kinase 2 inhibitors” (VIRGINIA COMMONWEALTH UNIVERSITY, priority 2012, dated 2017)

Experiments:
SphK1 = SphK1 (Homo sapiens, UniProt Q9NYA1); assay: SphK1 activity assay; assay type: biochemical; details: relative activity vs no inhibitor; compounds at 10 μM (FIGS. 1, 4, 6)
Description: A) SphK1 and SphK2 activities were measured with 5 μM sphingosine in the absence or presence of the indicated concentrations of K145 or 10 μM DMS. Data are expressed as percentage SphK activity in the absence of inhibitor; B) Effect of K145 (10 μM) on activity of the indicated enzymes was tested by SelectScreen Kinase Profiling from Invitrogen. CaMK11β, Ca2+/calmodulin-dependent protein kinase II; CDK2, cyclin-dependent kinase 2; EGFR, Epidermal Growth Factor Receptor; Fyn, Fyn Kinase (p55); ERK2, extracellular signal-regulated kinase 2; ERK1, extracellular signal-regulated kinase 1; PKA, protein kinase A; PKCα, protein kinase C α; P13K, phosphatidylinositide 3-kinase. Data are expressed as percentage of control activity averaged from 2 independent experiments.
FIG. 3. SphK2 was incubated with indicated compounds at 10 μM, then the activity of SphK2 was determined. The data shown here is a relative activity of SphK2 compared to control (no inhibitor, column labeled Sph in the Figure). 96047 is a known SpK2 inhibitor. A5, B26, K25 and QLA13 are known compounds [Li et al. (2009) Bioorg Med Chem Lett 19: 6042-6046; Liu et al. (2012) Eur J Med Chem 47: 125-137] and were tested for purposes of comparison. “A” and “B” refer to different batches of a compound. FIG. 4. SphK1 was incubated with indicated compounds at 10 μM, then the activity of SphK1 was determined. The data shown here is a relative activity of SphK1 compared to control (no inhibitor, column labeled Sph in the Figure). 96091 is a known Spk1 inhibitor. A5, B26, K25 and QLA13 are as above for […]. “A” and “B” refer to different batches of a compound.
FIG. 6. SphK1 was incubated with indicated compounds at 10 μM, then the activity of SphK2 was determined. The data shown here is a relative activity of SphK2 compared to control (no inhibitor).

SphK2 = target: T1, SphK2 (Homo sapiens, UniProt Q9NRA0); assay: SphK2 activity assay (sphingosine substrate, with kinetic study); assay type: biochemical; details: relative activity vs no inhibitor; compounds at 10 μM (FIGS. 1, 3, 5)
T1 sequence (Q9NRA0 1-654): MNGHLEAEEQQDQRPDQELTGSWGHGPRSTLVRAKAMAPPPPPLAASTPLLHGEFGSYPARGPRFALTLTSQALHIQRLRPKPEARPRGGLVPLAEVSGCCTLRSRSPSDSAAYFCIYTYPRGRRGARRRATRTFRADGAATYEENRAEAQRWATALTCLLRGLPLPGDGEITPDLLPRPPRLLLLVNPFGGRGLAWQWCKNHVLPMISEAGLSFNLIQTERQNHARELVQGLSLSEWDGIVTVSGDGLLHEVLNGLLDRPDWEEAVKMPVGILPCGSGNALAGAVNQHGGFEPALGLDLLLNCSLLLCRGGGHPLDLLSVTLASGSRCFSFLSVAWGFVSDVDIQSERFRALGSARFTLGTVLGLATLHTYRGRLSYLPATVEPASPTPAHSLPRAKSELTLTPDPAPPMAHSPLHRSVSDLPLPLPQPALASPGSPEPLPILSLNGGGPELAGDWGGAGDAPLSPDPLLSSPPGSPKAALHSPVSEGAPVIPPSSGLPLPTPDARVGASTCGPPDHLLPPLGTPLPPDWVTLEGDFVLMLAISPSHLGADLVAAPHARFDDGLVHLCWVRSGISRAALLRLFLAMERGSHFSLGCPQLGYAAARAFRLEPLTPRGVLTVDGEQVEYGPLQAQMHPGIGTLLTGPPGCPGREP
Description: A) SphK1 and SphK2 activities were measured with 5 μM sphingosine in the absence or presence of the indicated concentrations of K145 or 10 μM DMS. […] Data are expressed as percentage of control activity averaged from 2 independent experiments. Data are expressed as mean value±SEM.
SphK2 was incubated with indicated compounds at 10 μM, then the activity of SphK2 was determined. The data shown here is a relative activity of SphK2 compared to control (no inhibitor, column labeled Sph in the Figure). […] “A” and “B” refer to different batches of a compound.
SphK2 was incubated with indicated compounds at 10 μM, then the activity of SphK2 was determined. The data shown here is a relative activity of SphK2 compared to control (no inhibitor).

[1] = system: human leukemia U937 cells; assay: Cell viability assay in human leukemia U937 cells; assay type: cell-based; details: Homo sapiens, U-937; 24 hrs treatment, MTT assay; read-out: IC50 ± SEM, inhibition of U937 cell proliferation
Description: Cells were cultured at a density of 5×10^4 (U937) or 1×10^4 (PC-3, DU145, M12, HT29) cells per well in flat bottomed 96-well plates and treated with various concentrations of test compound at 37° C. (5% CO2). After 24 h, 20 μL of CellTiter 96® Aqueous One Solution Reagent (Promega, Madison, Wis.) was added to each well according to the manufacturer's instructions. After 1 hour, the cell viability was determined by measuring the absorbance at 490 nm using a micro-plate reader.

[2] = system: Raf/MEK/ERK and PI3K/Akt signaling pathways; assay: Western blot analysis of ERK and Akt phosphorylation; assay type: cell-based; details: Western blot, FIGS. 9 and 10
Description: Cells (5×10^5 per ml) were treated with various concentrations of test compound at 37° C. (5% CO2) for 3 hrs, then stimulated with TPA at a final concentration of 200 nM for 20 min. Samples from whole-cell pellets were prepared and 30 μg protein for each condition was subjected to SDS-PAGE, transferred onto a PVDF membrane, and blocked with 5% fat-free milk for 30 min. The membrane is probed with primary antibodies overnight at 4° C. followed by incubation with horseradish peroxidase-labeled anti-mouse IgG (1:5000, BD Bioscience). The immunoreactive bands are detected by chemilluminescence methods (Pierce) and visualized on Kodak Omat film. The following primary antibodies were used: phospho-p44/42 MAPK (ERK1/2, Thr202/Tyr204), p44/42 MAPK, phospho-p90RSK (Thr359/Ser363), RSK1/RSK2/RSK3 (Cell Signaling). Blots were reprobed with antibodies against α-tubulin to ensure equal loading and transfer of proteins.

U937 cells = assay: Cell apoptosis assay, annexin V/PI flow cytometry; assay type: cell-based, human; details: 24 hrs treatment
Description: Apoptosis was measured by flow cytometry using annexin V/propidium iodide (PI) as staining reagent. […] The cells were then incubated with annexin V-fluorescein isothiocyanate (FITC) (BD PharMingen, San Diego, Calif.) and 5 μg/mL propidium iodide (PI), and incubated for 15 minutes at room temperature in the dark per the manufacturer's instructions. The samples were analyzed by flow cytometry using a Becton Dickinson FACScan (Becton Dickinson, San Jose, Calif.) within 1 hr to determine the percentage of cells displaying annexin V staining (early apoptosis) or both annexin V and PI staining (late apoptosis).

U937 xenograft [3] = assay: U937 xenografts in nude mice, i.p. administration; assay type: in vivo, BALB/c-nu mice; details: 15 mg/kg daily i.p.
Description: D) Body weights of mice throughout treatment. Data are expressed as mean value±SD. *P<0.05 compared to control group.
Female nude mice (BALB/c-nu, n=7) were inoculated with 3×10^7 U937 cells subcutaneously in the right flank. After 7 days of implant of U937 cells, mice were treated daily with Vehicle (control), or Tamibarotene (15 mg/Kg, positive control), or Formula III (K145) (15 mg/Kg) by i.p. administration. Tumor size was measured every other day.

U937 xenograft [4] = assay: U937 xenografts in nude mice, oral administration; details: oral gavage daily 15 days; K145 50 mg/kg, tamibarotene 20 mg/kg
Description: BALB/c-nu mice (n=7) with palpable U937 xenograft were treated daily with vehicle, tamibarotene (20 mg/kg), or K145 (50 mg/kg) for 15 days by oral gavage. After treatment, animals were sacrificed and tumors were removed, weighed and images were taken. […] Data are expressed as mean value±SEM. *P<0.05 compared to control group.
In this experiment, K145 was given at 50 mg/kg by oral gavage daily for 15 days and tumor volume and animal weights were measured every other day. Again, tamibarotene (20 mg/kg) was used as positive control.

Chain of SphK1 (Q9NYA1 whole entry, species assumed): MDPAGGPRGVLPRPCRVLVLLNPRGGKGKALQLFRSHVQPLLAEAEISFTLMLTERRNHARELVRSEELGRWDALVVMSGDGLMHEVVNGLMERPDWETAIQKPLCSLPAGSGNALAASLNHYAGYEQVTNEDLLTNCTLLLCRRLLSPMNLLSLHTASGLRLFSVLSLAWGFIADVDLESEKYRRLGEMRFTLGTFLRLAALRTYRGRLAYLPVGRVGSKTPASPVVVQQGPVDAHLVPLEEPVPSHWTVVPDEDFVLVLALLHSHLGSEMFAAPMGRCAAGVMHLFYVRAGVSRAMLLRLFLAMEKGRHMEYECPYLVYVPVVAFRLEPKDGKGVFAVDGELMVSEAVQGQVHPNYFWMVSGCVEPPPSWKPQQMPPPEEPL

SMILES | inhibition of SphK1 activity (in words) (SphK1) | inhibition of SphK2 activity (in words) (SphK2) | IC50 [1] [nM] | other results
CCCCCCCOc1ccc(CC/C=C2\SC(=O)N(CCNC(=N)N)C2=O)cc1 [K11167] | inhibits both Sphk1 and Sphk2 | inhibits both Sphk1 and Sphk2 | – | –
CCCCCCCCCCCOc1ccc(CC/C=C2\SC(=O)N(CCN)C2=O)cc1 [KLII123] | did not inhibit SphK1 or inhibited SphK1 to a lesser extent | inhibited SphK2 selectively | – | –
CCCCCCCCCOc1ccc(CC/C=C2\SC(=O)N(CCN)C2=O)cc1 [KLII157] | did not inhibit SphK1 or inhibited SphK1 to a lesser extent | inhibited SphK2 selectively | – | –
NCCN1C(=O)C(=CCCC2CCCCC2)c2ccccc21 [S-II-36, 1-(2-aminoethyl)-3-(3-cyclohexylpropylidene)indolin-2-one] | – | – | 2700 ± 200 | –
NCCN1C(=O)C(=CCCc2ccc(F)cc2)c2ccccc21 [S-II-39, 1-(2-aminoethyl)-3-(3-(4-fluorophenyl)propylidene)indolin-2-one] | – | – | 2690 ± 60 | –
NCCN1C(=O)C(=CCCC2CC2)c2ccccc21 [S-II-40, 1-(2-aminoethyl)-3-(3-cyclopropylpropylidene)indolin-2-one] | – | – | 1160 ± 50 | –
NCCN1C(=O)C(=CCCc2ccc(Cl)cc2)c2ccccc21 [S-II-60, 1-(2-aminoethyl)-3-(3-(4-chlorophenyl)propylidene)indolin-2-one] | – | – | 4000 ± 700 | –
NCCN1C(=O)C(=CCCc2ccc([N+](=O)[O-])cc2)c2ccccc21 [S-II-61, 1-(2-aminoethyl)-3-(3-(4-nitrophenyl)propylidene)indolin-2-one] | – | – | 3600 ± 200 | –
COc1ccc(CCC=C2C(=O)N(CCN)c3ccccc32)cc1 [S-II-71, 1-(2-aminoethyl)-3-(3-(4-methoxyphenyl)propylidene)indolin-2-one] | – | – | 920 ± 40 | inhibition of Raf/MEK/ERK and PI3K/Akt signaling pathways [2]: inhibit; apoptotic effects in U937 cells (U937 cells): induced both early and late apoptotic effect
NCCN1C(=O)C(=CCCC23CC4CC(CC(C4)C2)C3)c2ccccc21 [S-II-73, 3-(3-(3r,5r,7r)-adamantan-1-yl)propylidene)-1-(2-aminoethyl)indolin-2-one] | did not inhibit SphK1 or inhibited SphK1 to a lesser extent | inhibited SphK2 selectively | – | –
CCCCOc1ccc(CCC=C2C(=O)N(CCN)c3ccccc32)cc1 [S-II-78, 1-(2-aminoethyl)-3-(3-(4-butoxyphenyl)propylidene)indolin-2-one] | – | – | 4600 ± 800 | –
CCOc1ccc(CCC=C2C(=O)N(CCN)c3ccccc32)cc1 [S-II-102, 1-(2-aminoethyl)-3-(3-(4-ethoxyphenyl)propylidene)indolin-2-one] | – | – | 950 ± 110 | –
CCCCCCCOc1ccc(CCC=C2C(=O)N(CCN)c3ccccc32)cc1 [S-II-103, 1-(2-aminoethyl)-3-(3-(4-(heptyloxy)phenyl)propylidene)indolin-2-one] | did not inhibit SphK1 or inhibited SphK1 to a lesser extent | inhibited SphK2 selectively | 3500 ± 300 | inhibition of Raf/MEK/ERK and PI3K/Akt signaling pathways [2]: inhibit; apoptotic effects in U937 cells (U937 cells): mainly induced late apoptotic effects
CCCCCCCOc1ccc(CC/C=C2/C(=O)N(CCN)c3ccccc32)cc1 [S-II-104] | did not inhibit SphK1 or inhibited SphK1 to a lesser extent | inhibited SphK2 selectively | – | –
CCCCCCCCC=C1C(=O)N(CCN)c2ccccc21 [S-II-129, 1-(2-aminoethyl)-3-nonylideneindolin-2-one] | – | – | 2128 ± 6 | –
CC1(C)CCC(C)(C)c2cc(NC(=O)c3ccc(C(=O)O)cc3)ccc21 [tamibarotene, reference compound] | – | – | – | TGI (tumor growth inhibition) (U937 xenograft [3]; 17 days): 50.4%; body weights of mice (U937 xenograft [3]; compared with vehicle): caused body weight decreases; TGI (tumor growth inhibition) (U937 xenograft [4]): 33.37%
